SMILES strings stand for the structures.

The test system of experiment [1] is cells containing alveolar macrophages. Briefly: Stimulation with LPS and 25-HC of bronchoalveolar lavage fluid cells from a cigarette smoke-exposed mouse; cytokine mRNA by real-time quantitative PCR. The note with it: co-stimulation with LPS (10 ng/ml) and 25-HC (0.3 to 3 μg/ml), 24 hours, compared with LPS alone; FIG. 6. It counts as cell-based. The method, then:
To examine the involvement of CH25H on the morbid state of COPD, the effect of added 25-hydroxycholesterol (25-HC), i.e. CH25H reaction product, on alveolar macrophages was examined. According to the method described in EXAMPLE 4, a mouse was exposed to cigarette smoke for 4 days, and on the next day of the final exposure, the bronchoalveolar lavage fluid was recovered according to the method described in EXAMPLE 4, and cells containing alveolar macrophages were seeded on a 96-well plate at a density of 1×10^6 cells/ml. On the next day, the cells were stimulated with LPS (10 ng/ml) and 25-HC (0.3 to 3 μg/ml) and cultured for 24 hours. According to the method described in EXAMPLE 1, total RNA was then recovered from the cells according to the attached manual, and the amounts of mRNAs of CXCL2 and IL-1β, that is, inflammatory cytokines, were quantified by the real-time quantitative PCR method. As each probe, the corresponding probe was selected from Assays on demand gene expression product (Applied Biosystems) and used. The expression level of each gene was calculated as relative expression value to rodent GAPDH by the comparative Ct value method.

Experiment [2] concerns C57BL/6 mice. In words: Production of cytokines in bronchoalveolar lavage fluid after intratracheal administration of 25-HC (ELISA). Format: in vivo. The note with it: 50 μg/50 μl/mouse, 3 hours after administration, vs control, FIG. 7. How it is done: To examine whether production of cytokines by 25-HC is observed in vivo as well, the effect of 25-HC administered to the lung of a mouse was examined.
25-HC or a control (physiological saline containing a solvent at the same concentration as used in dissolving 25-HC (10% aqueous ethanol)) was intratracheally administered at a dose of 50 μg/50 μl/mouse to C57BL/6 mice (6-week-old, male) under anesthesia with halothane, and 3, 6, 12, 24 and 48 hours after administration, the bronchoalveolar lavage fluid was recovered, and the amounts of KC and MIP-2, that is, inflammatory cytokines in the lavage fluid were measured by a commercial ELISA kit.
A general note: An ELISA detects its analyte on a solid surface through an enzyme-linked reagent.

In experiment [3] the test system is C57BL/6 mice. Briefly: Neutrophil infiltration in bronchoalveolar lavage fluid after intratracheal administration of hydroxylated cholesterols. The note with it: 50 μg/50 μl/mouse/day for 4 days, lavage on the next day, FIG. 8. Format: in vivo. How it is done:
To examine whether the airway inflammatory reaction by 25-HC is observed in vivo as well, the effect of 25-HC administered to the lung of a mouse was examined.
25-HC or a control (physiological saline containing a solvent at the same concentration as used in dissolving 25-HC (9.5% aqueous ethanol)), or 4β-hydroxycholesterol (4β-HC), was intratracheally administered for 4 days at a dose of 50 μg/50 μl/mouse/day to C57BL/6 mice (7-week-old, male) under anesthesia with ketamine and xylazine, and on the next day, the bronchoalveolar lavage fluid was recovered, and the number of inflammatory cells was determined.

On to `C[C@H](CCCC(C)(C)O)[C@H]1CC[C@H]2[C@@H]3CC=C4C[C@@H](O)CC[C@]4(C)[C@H]3CC[C@]12C` [25-HC, 25-hydroxycholesterol], for which, in experiment [1], the “expression of CXCL2 (mRNA, relative to rodent GAPDH)” value is given as “increased depending on the concentration of 25HC” and the “expression of IL-1β (mRNA, relative to rodent GAPDH)” value is on record as “increased depending on the concentration of 25HC”. In the experiment with C57BL/6 mice [2], the “amount of KC in bronchoalveolar lavage fluid” value is on record as “significant increase” and the “amount of MIP-2 in bronchoalveolar lavage fluid” value is recorded as “significant increase”. In addition, in the experiment with C57BL/6 mice [3], the “neutrophil infiltration (number of neutrophils in bronchoalveolar lavage fluid)” value was “significant neutrophil infiltration was recognized”.

The values are drawn from US7981598B2, “Preventive/remedy for respiratory diseases” (Takeda Pharmaceutical Company Limited, priority 2004, dated 2011).
